In US20070082877A1, “Difluoromethylbenzanilides and use thereof for combating micro-organisms, intermediate products and use thereof” (BAYER CORPSCIENCE AKTIENGESELLSCHAFT, priority 2003, published 2007):

Test: log P determination by HPLC on reversed-phase column (C 18), EEC directive 79/831 Annex V.A8
Format: physicochemical
Details: reversed-phase HPLC column (C 18), acidic range pH 2.3, 43° C.
Method: The given log P values were determined in accordance with EEC directive 79/831 Annex V.A8 by HPLC (High Performance Liquid Chromatography) on a reversed-phase column (C 18). Temperature: 43° C. Mobile phases for the determination in the acidic range (pH 2.3): 0.1% aqueous phosphoric acid, acetonitrile; linear gradient from 10% acetonitrile to 90% acetonitrile. Calibration was carried out using unbranched alkan-2-ones (having 3 to 6 carbon atoms) with known log P values (determination of the log P values by the retention times using linear interpolation between two successive alkanones).

chromatographic logP: 4.38
Structure (SMILES): CC(CC(C)(C)C)c1ccccc1NC(=O)c1ccccc1C(F)F (stereo not shown) [No. 1, 2-difluoromethyl-N-[2-(1,3,3-trimethylbutyl)phenyl]benzamide]
